We go through nine compounds from US9657022B2, “7-OXO-1,6-diazabicyclo[3.2.1]octane derivatives and their use as antibacterial agents” (WOCKHARDT LIMITED, priority 2014, dated 2017).

The structures appear in SMILES notation. ≈ marks a conversion by molar mass, not a printed value. Where two headings read alike, the source gives them in different places.

Test [1] relates to E. coli NCTC 13353 (CTX-M15, OXA-1). The test can be described thus: Antibacterial activity (MIC), agar dilution per CLSI. The note with it: Escherichia coli. Format: cell-based. The protocol: (§1) The biological activity of representative compounds according to the invention against various bacterial strains was investigated. In a typical study, overnight grown bacterial cultures were diluted appropriately and inoculated on the agar media containing doubling dilutions of the test compounds. Observations for growth or no growth was performed after 16-20 hours of incubation at 35±2° C. in the ambient air. The overall procedure was performed as per Clinical and Laboratory Standards Institute (CLSI) recommendations, (Clinical and Laboratory Standards Institute (CLSI), Performance Standards for Antimicrobial Susceptibility Testing, 20th Informational Supplement, M07-A9, Volume 32, No. 2, 2012). Molten Mueller Hinton Agar (BD, USA) containing serial dilutions of each antibacterial agent were poured on to the plates and allowed to solidify. Appropriate suspensions from the freshly grown cultures were prepared in normal saline so that about 10^4 CFU/spot of the organism was delivered on to the drug containing agar plates using automated multipoint inoculator (Mast, UK). The plates were incubated in Biochemical oxygen demand (BOD) incubator at 37° C. for 18 hours and then examined for growth.
(§2) The strains selected for study included E. coli NCTC 13353 producing CTX-M15 and OXA-1 beta-lactamase enzymes; K. pneumoniae H521 producing KPC, SHV, TEM beta-lactamase enzymes; and K. pneumoniae S48 producing NDM, SHV, TEM beta-lactamase enzymes. The activities are expressed as Minimum Inhibitory Concentrations (MICs) (mcg/ml).
(§3) The activities are expressed as Minimum Inhibitory Concentrations (MICs) (mcg/ml).
A general note: In agar dilution the substance is mixed into plates at graded concentrations.

Test [2] deals with K. pneumoniae H521 (KPC, SHV, TEM). The test is described as above. Format: cell-based. To be noted: Klebsiella pneumoniae. Here is the method:
as §1, §2, §3

The test system of test [3] is K. pneumoniae S48 (NDM, SHV, TEM). The description is as above. Format: cell-based. The note with it: Klebsiella pneumoniae. Here is the method:
as §1, §2

For test [4], the target named is T1, Class A beta-lactamase SHV 18 (K. pneumoniae ATCC 700603) (Klebsiella pneumoniae, UniProt P0AD64, E235K/G234A/I4F/R39S).
T1 sequence (P0AD64 1-286 I4F/R39S/G234A/E235K): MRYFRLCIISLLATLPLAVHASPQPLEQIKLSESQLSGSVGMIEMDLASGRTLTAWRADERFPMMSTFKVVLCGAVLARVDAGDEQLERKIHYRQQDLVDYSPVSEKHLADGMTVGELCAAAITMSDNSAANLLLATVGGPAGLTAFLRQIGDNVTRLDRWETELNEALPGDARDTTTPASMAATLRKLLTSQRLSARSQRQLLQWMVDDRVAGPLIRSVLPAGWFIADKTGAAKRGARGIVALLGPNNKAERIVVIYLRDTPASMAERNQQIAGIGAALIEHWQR
The test can be described thus: Beta-lactamase enzyme inhibition (Nitrocefin, crude enzyme). Format: biochemical. The note with it: Beta-lactamase enzyme inhibition IC50, Class A, K. pneumoniae ATCC 700603 (SHV 18). The protocol:
(§4) Absorbance was measured at 485 nm by UV-spectrophotometer. The IC50 was calculated by plotting absorbance against concentration through Sigmoidal dose response curve using Graph Pad software.
(§5) The enzyme inhibition was expressed as IC50.

Test [5] concerns Class C beta-lactamase CMY/DHA (E. coli M50). Described as above. Type of test: biochemical. Here is the method:
as §4, §5

In test [6] the target is T2, Class D beta-lactamase OXA 23 (A. baumannii NCTC 13301) (Acinetobacter baumannii, UniProt Q9L4P2).
T2 construct: preincubated mixture of crude enzyme and the compounds; endogenous in cells; host or cells: A. baumannii NCTC 13301
Described as above. Format: biochemical. The note with it: A. baumannii NCTC 13301 (OXA 23). The protocol:
as §4, §5

For another test, the system named is E. coli M50. The test is described as follows: Zone of inhibition, agar well, with and without ceftazidime. Type of test: cell-based. The note with it: for Diameter of Zone of Inhibition, Compound + Ceftazidime (10 μg/ml): E. coli M50; for zone of inhibition at 0.25 µg/disc / zone of inhibition at 0.5 µg/disc / zone of inhibition at 1 µg/disc: Escherichia coli, M50, read-out: Diameter of Zone of Inhibition, Compound. Here is the method:
(§6) In a typical experiment, two sets of plates containing growth media (Molten Mueller Hilton Agar) and bacterial strains were prepared. One set of plates was taken as control (without ceftazidime) and other set contained ceftazidime. The media was allowed to solidify and wells were punched later, into which varying concentrations of compounds according to the invention were poured. A two-fold serial dilution range of each of the compounds according to invention was prepared and 50 μl of each of the dilution was added into the punched well. The plates were then incubated at 37° C. for 18 hours in BOD incubator and diameters of zone of inhibition were measured after the completion of the incubation.
(§7) The Table 6 provides the antibacterial activity of the combination comprising compounds according to invention and ceftazidime. The compounds according to invention were tested at 0.12, 0.25, 0.5 and 1 μg/well.

Another test relates to E. coli NCTC 13353. The test is described as above. Format: cell-based. To be noted: for Diameter of Zone of Inhibition, Compound + Ceftazidime (10 μg/ml): E. coli NCTC 13353; for zone of inhibition at 0.25 µg/disc / zone of inhibition at 0.5 µg/disc / zone of inhibition at 1 µg/disc: Escherichia coli, NCTC13353, read-out: Diameter of Zone of Inhibition, Compound. Here is the method:
as §6, §7

In test [7] the target is Class D beta-lactamase OXA 26 (A. baumannii NCTC 13303) (Acinetobacter baumannii, UniProt Q9F0V2). The test can be described thus: Beta-lactamase enzyme inhibition (Nitrocefin, crude enzyme). Type of test: biochemical. To be noted: read-out: Beta-lactamase enzyme inhibition IC50, A. baumannii NCTC 13303 (OXA 26). Here is the method: as §4
[8] abbreviates: NCTC13353, E. coli NCTC 13353 (CTX-M15, OXA-1), read-out: MIC.
[9] abbreviates: K. pneumoniae H521 (KPC, SHV, TEM), read-out: MIC.
The mark [10] stands for this setting: Class D, read-out: Beta-lactamase enzyme inhibition IC50.
The mark [11] stands for this setting: Beta-lactamase enzyme inhibition IC50, Class D.
Where [12] appears, read: compound 0.25 μg/well + Ceftazidime 10 μg/ml.
Setting [13] is: compound 0.5 μg/well + Ceftazidime 10 μg/ml.
[14] abbreviates: compound 1 μg/well + Ceftazidime 10 μg/ml.
[15] abbreviates: compound […] + Ceftazidime 10 μg/ml.

T2 sequence (Q9L4P2 18-273): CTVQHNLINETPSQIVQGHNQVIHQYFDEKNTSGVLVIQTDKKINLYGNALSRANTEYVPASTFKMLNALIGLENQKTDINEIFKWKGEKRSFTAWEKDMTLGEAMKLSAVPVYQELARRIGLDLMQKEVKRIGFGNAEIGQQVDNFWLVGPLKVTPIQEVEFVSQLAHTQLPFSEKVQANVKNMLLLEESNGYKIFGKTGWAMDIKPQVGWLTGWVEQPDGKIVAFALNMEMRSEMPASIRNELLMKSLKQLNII
Sequence of Class D beta-lactamase OXA 26 (A. baumannii NCTC 13303) (Q9F0V2 entry or part of it): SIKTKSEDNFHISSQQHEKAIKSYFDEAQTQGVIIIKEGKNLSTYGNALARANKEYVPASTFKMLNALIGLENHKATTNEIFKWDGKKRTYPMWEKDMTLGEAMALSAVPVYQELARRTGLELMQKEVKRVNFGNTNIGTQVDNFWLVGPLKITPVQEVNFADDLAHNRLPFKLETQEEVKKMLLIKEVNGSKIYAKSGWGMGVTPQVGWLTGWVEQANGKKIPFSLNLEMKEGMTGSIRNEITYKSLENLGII

As to `O=C(CC1CNCCN1)NNC(=O)[C@@H]1CC[C@@H]2CN1C(=O)N2OS(=O)(=O)O` (mixture of isomers) [Example 7, (2S,5R)-sulfuric acid mono-{2-[N′-(2-(RS)-piperazin-2-yl-acetyl)-hydrazinocarbonyl]-7-oxo-1,6-diaza-bicyclo[3.2.1]oct-6-yl}ester], the results for the MIC in test [1] (setting [8]), in [2] (setting [9]) and in test [3] were 2 µg/mL, 4 µg/mL and 2 µg/mL, respectively. Moreover, the IC50 (as a rule, the midpoint of a concentration-inhibition curve) came out at 67 nM in test [4], 70 nM in [5] and 2840 nM in test [6] (setting [10]).

As for `O=C(C[C@@H]1CCCNC1)NNC(=O)[C@@H]1CC[C@@H]2CN1C(=O)N2OS(=O)(=O)O` [Example 5, (2S,5R)-sulfuric acid mono-{2-[N′-(2-(S)-piperidin-3-yl-acetyl)-hydrazinocarbonyl]-7-oxo-1,6-diaza-bicyclo[3.2.1]oct-6-yl}ester], the MIC (in general, the least concentration at which growth counts as inhibited) in [1] (NCTC13353, 18 h) is 0.5 µg/mL (≈ 1.23 µM); in test [2] (18 h), 4 µg/mL (≈ 9.87 µM); in test [3] (18 h) it was 1 µg/mL (≈ 2.47 µM). Besides, the values for the IC50 in test [4] and in [6] (setting [10]) were 160 nM and 1730 nM, respectively.

Take `O=C(CC1CNC1)NNC(=O)[C@@H]1CC[C@@H]2CN1C(=O)N2OS(=O)(=O)O` [Example 2, (2S,5R)-sulfuric acid mono-{2-[N′-(2-azetidin-3-yl-acetyl)-hydrazinocarbonyl]-7-oxo-1,6-diaza-bicyclo[3.2.1]oct-6-yl}ester]: the MIC in [1] (NCTC13353) was 1 µg/mL (≈ 2.65 µM); in test [2], 4 µg/mL (≈ 10.6 µM); in test [3] it was 2 µg/mL (≈ 5.3 µM). Also, the values for the IC50 in test [4], in test [5] and in test [6] (setting [11]) were 97 nM, 103 nM and 6190 nM, respectively. Moreover, the “Diameter of Zone of Inhibition, Compound + Ceftazidime (10 μg/ml)” value (“Diameter of Zone of Inhibition” for short) in the test on E. coli M50 (setting [12]) was 19 mm; with E. coli M50 (setting [13]), 22 mm; in the test with E. coli M50 (setting [14]) it was 23.5 mm; in the test on E. coli M50 (setting [15]) it was 15 mm; in the test on E. coli NCTC 13353 (setting [12]) it was 24 mm; with E. coli NCTC 13353 (setting [13]), 26 mm. The “Diameter of Zone of Inhibition” value worked out at 30 mm in the test with E. coli NCTC 13353 (setting [14]) and 21 mm in the test with E. coli NCTC 13353 (setting [15]). Besides, the results for the zone of inhibition at 0.25 µg/disc in the test on E. coli M50 and in the test on E. coli NCTC 13353 were 9 mm and 10 mm, respectively. Also, the zone of inhibition – broadly, the size of the clear area around the sample on an inoculated plate – at 0.5 µg/disc with E. coli M50 is 12 mm; in the test on E. coli NCTC 13353 it was 13 mm. Further, the zone of inhibition at 1 µg/disc in the test with E. coli M50 and in the test with E. coli NCTC 13353 was 15 mm throughout.

Regarding `CC(C)(O/N=C(\C(=O)N[C@@H]1C(=O)N2C(C(=O)[O-])=C(C[n+]3ccccc3)CS[C@H]12)c1csc(N)n1)C(=O)O` [Ceftazidime, ceftazidime, reference compound], the MIC in [1] (setting [8]) is 32 µg/mL (≈ 58.5 µM); in test [2] (setting [9]) it was above 32 µg/mL; in test [3] (K. pneomoniae S48 (NDM, SHV, TEM), read-out: MIC) it was above 32 µg/mL.

Regarding `O=C(CC1CCNCC1)NNC(=O)[C@@H]1CC[C@@H]2CN1C(=O)N2OS(=O)(=O)O` [Example 6, (2S,5R)-sulfuric acid mono-{2-[N′-(2-piperidin-4-yl-acetyl)-hydrazinocarbonyl]-7-oxo-1,6-diaza-bicyclo[3.2.1]oct-6-yl}ester], the MIC in test [1] (NCTC13353) was 0.5 µg/mL (≈ 1.23 µM); in [2], 2 µg/mL (≈ 4.93 µM); in test [3] it was 1 µg/mL (≈ 2.47 µM). The values for the IC50 in test [4], in test [5] and in test [6] (setting [10]) were 60 nM, 37 nM and 1620 nM, respectively.

Consider `O=C(C[C@H]1CCCCN1)NNC(=O)[C@@H]1CC[C@@H]2CN1C(=O)N2OS(=O)(=O)O` [Example 4, (2S,5R)-sulfuric acid mono-{2-[N′-(2-(R)-piperidin-2-yl-acetyl)-hydrazinocarbonyl]-7-oxo-1,6-diaza-bicyclo[3.2.1]oct-6-yl}ester], for which the values for the minimal inhibitory concentration (MIC) in test [1] (NCTC13353), in test [2] and in test [3] were 2 µg/mL (≈ 4.93 µM), 4 µg/mL (≈ 9.87 µM) and 2 µg/mL (≈ 4.93 µM), respectively. Besides, the IC50 in [4] worked out at 170 nM; in test [5], 56 nM; in test [6] (setting [10]), 2930 nM.

Take `O=C(O)[C@H]1/C(=C/CO)O[C@@H]2CC(=O)N21` [Clavulanic acid, clavulanic acid, reference compound]: the half-maximal inhibitory concentration (IC50) in [6] (setting [11]) was above 10000 nM; in [7] it was above 10 µM.

Take `C[C@@H](O)[C@H]1C(=O)N2C(C(=O)O)=C(SCCN=CN)C[C@H]12` [Imipenem, imipenem, reference compound]: in test [1] (setting [8]), the MIC stood at 0.25 µg/mL (≈ 0.835 µM).

Regarding `O=C(C[C@@H]1CCCCN1)NNC(=O)[C@@H]1CC[C@@H]2CN1C(=O)N2OS(=O)(=O)O` [Example 3, (2S,5R)-sulfuric acid mono-{2-[N′-(2-(S)-piperidin-2-yl-acetyl)-hydrazinocarbonyl]-7-oxo-1,6-diaza-bicyclo[3.2.1]oct-6-yl}ester], the MIC is 0.25 µg/mL (≈ 0.617 µM) in [1] (NCTC13353), 0.5 µg/mL (≈ 1.23 µM) in [2] and 0.5 µg/mL (≈ 1.23 µM) in test [3]. The results for the IC50 in test [4], in [5] and in test [6] (setting [10]) were 74 nM, 52 nM and 2110 nM, respectively. The “Diameter of Zone of Inhibition” value in the test with E. coli M50 (setting [12]) is 17.5 mm; in the test with E. coli M50 (setting [13]) it was 20 mm; in the test on E. coli M50 (setting [14]) it was 22.5 mm; in the test with E. coli M50 (setting [15]) it was 14.5 mm; with E. coli NCTC 13353 (setting [12]) it was 22 mm; in the test with E. coli NCTC 13353 (setting [13]) it was 27 mm. In addition, the “Diameter of Zone of Inhibition” value in the test on E. coli NCTC 13353 (setting [14]) was 30 mm; in the test on E. coli NCTC 13353 (setting [15]), 20 mm. Also, the zone of inhibition at 0.25 µg/disc in the test on E. coli M50 worked out at 13 mm; in the test on E. coli NCTC 13353 it was 14 mm. Further, the zone of inhibition at 0.5 µg/disc turned out to be 16 mm in the test with E. coli M50 and 15 mm in the test on E. coli NCTC 13353. For the same compound, the zone of inhibition at 1 µg/disc with E. coli M50 and in the test with E. coli NCTC 13353 was 17 mm throughout.
